Laboratory results from patent US20230167122A1, “PESTICIDALLY ACTIVE HETEROCYCLIC DERIVATIVES WITH SULFUR CONTAINING SUBSTITUENTS” (SYNGENTA CROP PROTECTION AG, priority 2020, published 2023).

Columns and labels:
Type in all cases: in vivo
[1] = system: Bemisia tabaci (Cotton White Fly); test: Example B1: Activity against Bemisia tabaci (cotton white fly), sprayed cotton leaf discs; settings: foliar, 144 h, application rate of 200 ppm, adult white flies on cotton leaf discs, 6 days after incubation
Description: Example B1: Activity Against Bemisia tabaci (Cotton White Fly)
Cotton leaf discs were placed on agar in 24-well microtiter plates and sprayed with aqueous test solutions prepared from 10′000 ppm DMSO stock solutions. After drying the leaf discs were infested with adult white flies. The samples were checked for mortality 6 days after incubation.

[2] = system: Diabrotica balteata (Corn Root Worm); test: Example B2: Activity against Diabrotica balteata (corn root worm), sprayed maize sprouts; settings: 96 h, application rate of 200 ppm, L2 larvae on maize sprouts, 4 days after infestation, read-out: effect in at least one of the two categories (mortality or growth inhibition)
Description: Example B2: Activity Against Diabrotica balteata (Corn Root Worm)
Maize sprouts placed onto an agar layer in 24-well microtiter plates were treated with aqueous test solutions prepared from 10′000 ppm DMSO stock solutions by spraying. After drying, the plates were infested with L2 larvae (6 to 10 per well). The samples were assessed for mortality and growth inhibition in comparison to untreated samples 4 days after infestation.

[3] = system: Euschistus heros (Neotropical Brown Stink Bug); test: Example B3: Activity against Euschistus heros (neotropical brown stink bug), sprayed soybean leaf; settings: 120 h, application rate of 200 ppm, N-2 nymphs on soybean leaf, 5 days after infestation, read-out: effect in at least one of the two categories (mortality or growth inhibition)
Description: Example B3: Activity Against Euschistus heros (Neotropical Brown Stink Bug)
Soybean leaf on agar in 24-well microtiter plates were sprayed with aqueous test solutions prepared from 10′000 ppm DMSO stock solutions. After drying the leaf were infested with N-2 nymphs. The samples were assessed for mortality and growth inhibition in comparison to untreated samples 5 days after infestation.

[4] = system: Frankliniella occidentalis (Western Flower Thrips); test: Example B4: Activity against Frankliniella occidentalis (western flower thrips), sprayed sunflower leaf discs; settings: foliar, 168 h, application rate of 200 ppm, population of mixed ages on sunflower leaf discs, 7 days after infestation
Description: Example B4: Activity Against Frankliniella occidentalis (Western Flower Thrips)
Sunflower leaf discs were placed on agar in 24-well microtiter plates and sprayed with aqueous test solutions prepared from […] stock solutions. After drying the leaf discs were infested with a Frankliniella population of mixed ages. The samples were assessed for mortality 7 days after infestation.

[5] = system: Plutella xylostella (Diamond Back Moth); test: Example B5: Activity against Plutella xylostella (diamond back moth), eggs, artificial diet; settings: 192 h, application rate of 200 ppm, 8 days after infestation, read-out: effect in at least one of the two categories (mortality or growth inhibition)
Description: Example B5: Activity Against Plutella xylostella (Diamond Back Moth)
24-well microtiter plates with artificial diet were treated with aqueous test solutions prepared from 10′000 ppm DMSO stock solutions by pipetting. After drying, Plutella eggs were pipetted through a plastic stencil onto a gel blotting paper and the plate was closed with it. The samples were assessed for mortality and growth inhibition in comparison to untreated samples 8 days after infestation.

[6] = system: Myzus persicae (Green Peach Aphid); test: Example B6: Activity against Myzus persicae (green peach aphid), sprayed sunflower leaf discs; settings: foliar, 144 h, application rate of 200 ppm, aphid population of mixed ages on sunflower leaf discs, 6 days after infestation
Description: Example B6: Activity Against Myzus persicae (Green Peach Aphid)
Sunflower leaf discs were placed on agar in a 24-well microtiter plate and sprayed with aqueous test solutions prepared from 10′000 ppm DMSO stock solutions. After drying, the leaf discs were infested with an aphid population of mixed ages. The samples were assessed for mortality 6 days after infestation.

[7] = system: Spodoptera littoralis (Egyptian Cotton Leaf Worm); test: Example B9: Activity against Spodoptera littoralis (Egyptian cotton leaf worm), sprayed cotton leaf discs; settings: foliar, 72 h, application rate of 200 ppm, L1 larvae on cotton leaf discs, 3 days after infestation
Description: Example B9: Activity Against Spodoptera littoralis (Egyptian Cotton Leaf Worm)
Cotton leaf discs were placed onto agar in 24-well microtiter plates and sprayed with aqueous test solutions prepared from 10′000 ppm DMSO stock solutions. After drying the leaf discs were infested with five L1 larvae. The samples were assessed for mortality, anti-feeding effect, and growth inhibition in comparison to untreated samples 3 days after infestation. Control of Spodoptera littoralis by a test sample is given when at least one of the categories mortality, anti-feedant effect, and growth inhibition is higher than the untreated sample.

[8] = system: Plutella xylostella (Diamond Back Moth); test: Example B8: Activity against Plutella xylostella (diamond back moth), L2 larvae, artificial diet; settings: 120 h, application rate of 200 ppm, 5 days after infestation, read-out: effect in at least one of the two categories (mortality or growth inhibition)
Description: Example B8: Activity Against Plutella xylostella (Diamond Back Moth)
24-well microtiter plates with artificial diet were treated with aqueous test solutions prepared from 10′000 ppm DMSO stock solutions by pipetting. After drying, the plates were infested with L2 larvae (10 to 15 per well). The samples were assessed for mortality and growth inhibition in comparison to untreated samples 5 days after infestation.

CCS(=O)(=O)c1cc(OC(C)(C)C#N)cnc1-c1nc2cc(SC(F)(F)F)ccc2n1C [Compound P13, 2-[[5-ethylsulfonyl-6-[1-methyl-5-(trifluoromethylsulfanyl)benzimidazol-2-yl]-3-pyridyl]oxy]-2-methyl-propanenitrile]
≥ 80%: mortality at 200 ppm [1] | percent effect (mortality or growth inhibition) at 200 ppm [2] | percent effect (mortality or growth inhibition) at 200 ppm [3] | mortality at 200 ppm [4] | percent effect (mortality or growth inhibition) at 200 ppm [5] | mortality at 200 ppm [6] | percent control (mortality, anti-feedant effect or growth inhibition) at 200 ppm [7]

CCS(=O)(=O)c1cc(OC(C)(C)C#N)cnc1-c1nc2cc(C(F)(F)F)cnc2n1C [Compound P3, 2-[[5-ethylsulfonyl-6-[3-methyl-6-(trifluoromethyl)imidazo[4,5-b]pyridin-2-yl]-3-pyridyl]oxy]-2-methyl-propanenitrile]
≥ 80%: mortality at 200 ppm [1] | percent effect (mortality or growth inhibition) at 200 ppm [2] | percent effect (mortality or growth inhibition) at 200 ppm [3] | mortality at 200 ppm [4] | percent effect (mortality or growth inhibition) at 200 ppm [5] | mortality at 200 ppm [6] | percent control (mortality, anti-feedant effect or growth inhibition) at 200 ppm [7]

CCS(=O)(=O)c1cc(OC(C)(C)C#N)ccc1-c1nc2cc(C(F)(F)F)nnc2n1C [Compound P12, 2-[3-ethylsulfonyl-4-[7-methyl-3-(trifluoromethyl)imidazo[4,5-c]pyridazin-6-yl]phenoxy]-2-methyl-propanenitrile]
≥ 80%: mortality at 200 ppm [1] | percent effect (mortality or growth inhibition) at 200 ppm [2] | percent effect (mortality or growth inhibition) at 200 ppm [3] | mortality at 200 ppm [4] | mortality at 200 ppm [6] | percent effect (mortality or growth inhibition) at 200 ppm [8] | percent control (mortality, anti-feedant effect or growth inhibition) at 200 ppm [7]

CCS(=O)(=O)c1cc(OC(C)(C)C#N)cnc1-c1nc2cc(C(F)(F)F)n(C3CC3)c(=O)c2n1C [Compound P7, 2-[[6-[5-cyclopropyl-3-methyl-4-oxo-6-(trifluoromethyl)imidazo[4,5-c]pyridin-2-yl]-5-ethylsulfonyl-3-pyridyl]oxy]-2-methyl-propanenitrile]
≥ 80%: percent effect (mortality or growth inhibition) at 200 ppm [2] | percent effect (mortality or growth inhibition) at 200 ppm [3] | mortality at 200 ppm [4] | percent effect (mortality or growth inhibition) at 200 ppm [8] | percent control (mortality, anti-feedant effect or growth inhibition) at 200 ppm [7]

CCn1c(C(F)(F)F)cc2nc(-c3ncc(OC(C)(C)C#N)cc3S(=O)(=O)CC)n(C)c2c1=O [Compound P6, 2-[[6-[5-ethyl-3-methyl-4-oxo-6-(trifluoromethyl)imidazo[4,5-c]pyridin-2-yl]-5-ethylsulfonyl-3-pyridyl]oxy]-2-methyl-propanenitrile]
≥ 80%: mortality at 200 ppm [1] | percent effect (mortality or growth inhibition) at 200 ppm [2] | percent effect (mortality or growth inhibition) at 200 ppm [3] | mortality at 200 ppm [4] | mortality at 200 ppm [6] | percent effect (mortality or growth inhibition) at 200 ppm [8] | percent control (mortality, anti-feedant effect or growth inhibition) at 200 ppm [7]

CCS(=O)(=O)c1cc(OC(C)(C)C#N)cnc1-c1nc2cc(S(=O)(=O)C(F)(F)F)ccc2n1C [Compound P14, 2-[[5-ethylsulfonyl-6-[1-methyl-5-(trifluoromethylsulfonyl)benzimidazol-2-yl]-3-pyridyl]oxy]-2-methyl-propanenitrile]
≥ 80%: mortality at 200 ppm [1] | percent effect (mortality or growth inhibition) at 200 ppm [2] | percent effect (mortality or growth inhibition) at 200 ppm [3] | mortality at 200 ppm [4] | percent effect (mortality or growth inhibition) at 200 ppm [5] | mortality at 200 ppm [6] | percent control (mortality, anti-feedant effect or growth inhibition) at 200 ppm [7]
